Test results reported in ChEMBL document CHEMBL3785013, “Novel morpholinoquinoline nucleus clubbed with pyrazoline scaffolds: Synthesis, antibacterial, antitubercular and antimalarial activities” (Eur J Med Chem, 2016).
In brackets after ≈: the same amount, converted by molar mass.

Key:
[1] = tested on: Mycobacterium tuberculosis; assay: Antituberculosis activity against Mycobacterium tuberculosis H37Rv after 2 to 4 weeks by Lowensteine-Jensen method; type: functional
[2] = tested on: Mycobacterium tuberculosis; assay: Antituberculosis activity against Mycobacterium tuberculosis H37Rv at 250 ug/ml incubated for 24 hrs measured after 2 to 4 weeks by Lowensteine-Jensen method; type: functional
Clostridium tetani = assay: Antibacterial activity against Clostridium tetani MTCC 449 after 24 to 48 hrs by broth microdilution method; type: functional
Aspergillus fumigatus = assay: Antifungal activity against Aspergillus fumigatus MTCC 3008 after 24 to 48 hrs by broth microdilution method; type: functional
Bacillus subtilis = assay: Antibacterial activity against Bacillus subtilis MTCC 441 after 24 to 48 hrs by broth microdilution method; type: functional
Escherichia coli = assay: Antibacterial activity against Escherichia coli MTCC 443 after 24 to 48 hrs by broth microdilution method; type: functional
Salmonella typhi = assay: Antibacterial activity against Salmonella typhi MTCC 98 after 24 to 48 hrs by broth microdilution method; type: functional, Salmonella enterica subsp. enterica serovar Typhi; conditions: Salmonella enterica
Plasmodium falciparum = assay: Antimalarial activity against Plasmodium falciparum after 48 hrs; type: functional, organism-based
Streptococcus pneumoniae = assay: Antibacterial activity against Streptococcus pneumoniae MTCC 1936 after 24 to 48 hrs by broth microdilution method; type: functional
Vibrio cholerae = assay: Antibacterial activity against Vibrio cholerae MTCC 3906 after 24 to 48 hrs by broth microdilution method; type: functional
Candida albicans = assay: Antifungal activity against Candida albicans MTCC 227 after 24 to 48 hrs by broth microdilution method; type: functional
[3] = tested on: Schizosaccharomyces pombe; assay: Cytotoxicity against Schizosaccharomyces pombe at 2.5 to 12.5 ug/ml after 17 hrs by trypan blue exclusion method; type: organism-based; conditions: in vivo

Row | Molecule | MIC [1] [µM] | inhibition at 250 µg/mL [2] [%] | MIC (Clostridium tetani) [µM] | MIC (Aspergillus fumigatus) [µM] | MIC (Bacillus subtilis) [µM] | MIC (Escherichia coli) [µM] | MIC (Salmonella typhi) [µM] | IC50 (Plasmodium falciparum) [nM] | MIC (Streptococcus pneumoniae) [µM] | MIC (Vibrio cholerae) [µM] | MIC (Candida albicans) [µM] | Activity [3]
1 | NNC(=O)c1ccncc1 [ISONIAZID] | 1 (≈ 0.137 µg/mL) |  |  |  |  |  |  |  |  |  |  | 
2 | CO[C@H]1/C=C/O[C@@]2(C)Oc3c(C)c(O)c4c(O)c(c(/C=N/N5CCN(C)CC5)c(O)c4c3C2=O)NC(=O)/C(C)=C\C=C\[C@H](C)[C@H](O)[C@@H](C)[C@@H](O)[C@@H](C)[C@H](OC(C)=O)[C@@H]1C [RIFAMPIN] | 48 (≈ 39.5 µg/mL) | 98 |  |  |  |  |  |  |  |  |  | 
3 | NC(=S)N1N=C(c2ccc(Cl)cc2)CC1c1cc2ccccc2nc1N1CCOCC1 (stereo not given) |  | 45 | 221 (≈ 99.9 µg/mL) | 221 (≈ 99.9 µg/mL) | 221 (≈ 99.9 µg/mL) | 442 (≈ 200 µg/mL) | 553 (≈ 250 µg/mL) | 4650 | 553 (≈ 250 µg/mL) | 221 (≈ 99.9 µg/mL) | 2210 (≈ 1000 µg/mL) | 
4 | Fc1ccc(C2=NN(c3ccc(F)cc3)C(c3cc4ccccc4nc3N3CCOCC3)C2)cc1 (stereo not given) |  | 48 | 132 (≈ 62.1 µg/mL) | 2120 (≈ 1000 µg/mL) | 212 (≈ 99.8 µg/mL) | 265 (≈ 125 µg/mL) | 212 (≈ 99.8 µg/mL) | 3420 | 265 (≈ 125 µg/mL) | 132 (≈ 62.1 µg/mL) | 212 (≈ 99.8 µg/mL) | 
5 | O=C(O)c1cn(C2CC2)c2cc(N3CCNCC3)c(F)cc2c1=O [CIPROFLOXACIN] |  |  |  |  | 150 (≈ 49.7 µg/mL) | 75 (≈ 24.9 µg/mL) | 75 (≈ 24.9 µg/mL) |  | 150 (≈ 49.7 µg/mL) | 75 (≈ 24.9 µg/mL) |  | 
6 | CC(=O)N1N=C(c2ccc(Cl)cc2)CC1c1cc2ccccc2nc1N1CCOCC1 (stereo not given) | 143 (≈ 62.2 µg/mL) | 96 | 149 (≈ 64.8 µg/mL) | 1150 (≈ 500 µg/mL) | 229 (≈ 99.6 µg/mL) | 229 (≈ 99.6 µg/mL) | 574 (≈ 250 µg/mL) | 2870 | 1150 (≈ 500 µg/mL) | 229 (≈ 99.6 µg/mL) | 1150 (≈ 500 µg/mL) | 
7 | NC(=S)N1N=C(c2ccc(F)cc2)CC1c1cc2ccccc2nc1N1CCOCC1 (stereo not given) |  | 54 | 1150 (≈ 500 µg/mL) | 1150 (≈ 500 µg/mL) | 1150 (≈ 500 µg/mL) | 574 (≈ 250 µg/mL) | 143 (≈ 62.3 µg/mL) | 1840 | 229 (≈ 99.7 µg/mL) | 574 (≈ 250 µg/mL) | 229 (≈ 99.7 µg/mL) | 
8 | O=C(N[C@H](CO)[C@H](O)c1ccc([N+](=O)[O-])cc1)C(Cl)Cl [CHLORAMPHENICOL] |  |  | 154 (≈ 49.8 µg/mL) |  | 154 (≈ 49.8 µg/mL) | 154 (≈ 49.8 µg/mL) | 154 (≈ 49.8 µg/mL) |  | 154 (≈ 49.8 µg/mL) | 154 (≈ 49.8 µg/mL) |  | 
9 | COc1ccc(C2=NN(C(N)=S)C(c3cc4ccccc4nc3N3CCOCC3)C2)cc1 (stereo not given) |  | 63 | 446 (≈ 200 µg/mL) | 223 (≈ 99.8 µg/mL) | 446 (≈ 200 µg/mL) | 558 (≈ 250 µg/mL) | 223 (≈ 99.8 µg/mL) | 3240 | 223 (≈ 99.8 µg/mL) | 558 (≈ 250 µg/mL) | 1120 (≈ 500 µg/mL) | 
10 | C=C[C@H]1CN2CC[C@H]1C[C@H]2[C@H](O)c1ccnc2ccc(OC)cc12 [QUININE] |  |  |  |  |  |  |  | 826 |  |  |  | 
11 | CCn1cc(C(=O)O)c(=O)c2cc(F)c(N3CCNCC3)cc21 [NORFLOXACIN] |  |  | 313 (≈ 100 µg/mL) |  | 310 (≈ 99 µg/mL) | 31 (≈ 9.9 µg/mL) | 31 (≈ 9.9 µg/mL) |  | 31 (≈ 9.9 µg/mL) | 31 (≈ 9.9 µg/mL) |  | 
12 | NYSTATIN |  |  |  | 107 |  |  |  |  |  |  | 107 | 
13 | COC1=CC(=O)C[C@@H](C)[C@]12Oc1c(Cl)c(OC)cc(OC)c1C2=O [GRISEOFULVIN] |  |  |  | 283 (≈ 99.8 µg/mL) |  |  |  |  |  |  | 1150 (≈ 405 µg/mL) | 
14 | O=CN1N=C(c2ccc(Br)cc2)CC1c1cc2ccccc2nc1N1CCOCC1 (stereo not given) |  | 32 | 429 (≈ 200 µg/mL) | 1070 (≈ 500 µg/mL) | 214 (≈ 99.6 µg/mL) | 214 (≈ 99.6 µg/mL) | 134 (≈ 62.4 µg/mL) | 40 | 537 (≈ 250 µg/mL) | 214 (≈ 99.6 µg/mL) | 537 (≈ 250 µg/mL) | Non-toxic
15 | CC(=O)N1N=C(c2ccc(Br)cc2)CC1c1cc2ccccc2nc1N1CCOCC1 (stereo not given) |  | 29 | 208 (≈ 99.7 µg/mL) | 208 (≈ 99.7 µg/mL) | 1040 (≈ 500 µg/mL) | 521 (≈ 250 µg/mL) | 1040 (≈ 500 µg/mL) | 18 | 417 (≈ 200 µg/mL) | 1040 (≈ 500 µg/mL) | 2090 (≈ 1000 µg/mL) | Toxic
16 | CC1(C)S[C@@H]2[C@H](NC(=O)[C@H](N)c3ccccc3)C(=O)N2[C@H]1C(=O)O [AMPICILLIN] |  |  | 715 (≈ 250 µg/mL) |  | 715 (≈ 250 µg/mL) | 286 (≈ 99.9 µg/mL) | 286 (≈ 99.9 µg/mL) |  | 286 (≈ 99.9 µg/mL) | 286 (≈ 99.9 µg/mL) |  | 
17 | O=CN1N=C(c2ccc(F)cc2)CC1c1cc2ccccc2nc1N1CCOCC1 (stereo not given) | 247 (≈ 99.9 µg/mL) | 93 | 1240 (≈ 500 µg/mL) | > 2470 | 154 (≈ 62.3 µg/mL) | 494 (≈ 200 µg/mL) | 1240 (≈ 500 µg/mL) | 1040 | 247 (≈ 99.9 µg/mL) | 618 (≈ 250 µg/mL) | 2470 (≈ 1000 µg/mL) | 
18 | CC(=O)N1N=C(c2ccc(F)cc2)CC1c1cc2ccccc2nc1N1CCOCC1 (stereo not given) |  | 32 | 238 (≈ 99.6 µg/mL) | 1190 (≈ 500 µg/mL) | 597 (≈ 250 µg/mL) | 597 (≈ 250 µg/mL) | 238 (≈ 99.6 µg/mL) | 1670 | 238 (≈ 99.6 µg/mL) | 597 (≈ 250 µg/mL) | 597 (≈ 250 µg/mL) | 
19 | COc1ccc(C2=NN(C=O)C(c3cc4ccccc4nc3N3CCOCC3)C2)cc1 (stereo not given) |  | 36 | 1200 (≈ 500 µg/mL) | 2400 (≈ 1000 µg/mL) | 600 (≈ 250 µg/mL) | 480 (≈ 200 µg/mL) | 240 (≈ 100 µg/mL) | 1870 | 240 (≈ 100 µg/mL) | 480 (≈ 200 µg/mL) | 1200 (≈ 500 µg/mL) | 
20 | Fc1ccc(N2N=C(c3ccc(Cl)cc3)CC2c2cc3ccccc3nc2N2CCOCC2)cc1 (stereo not given) |  | 24 | 1030 (≈ 500 µg/mL) | 205 (≈ 99.8 µg/mL) | 410 (≈ 200 µg/mL) | 205 (≈ 99.8 µg/mL) | 410 (≈ 200 µg/mL) | 1790 | 1030 (≈ 500 µg/mL) | 513 (≈ 250 µg/mL) | 2050 (≈ 1000 µg/mL) | 
